We go through ten molecules from PubChem BioAssay (NCI).

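Results reflect a 48-hour exposure of cells in 96-well plates to compound at five concentrations. At the TGI there is no net growth.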

What all share (assay): NCI-60 cell line screen, 48 h
The subject of assay [1] is HOP-62 NSCLC.
The test system of assay [2] is SK-MEL-2 melanoma.
Assay [3] relates to A498 renal.
Assay [4] relates to NCI/ADR-RES ovarian.
The test system of assay [5] is EKVX NSCLC.
The test system of assay [6] is HL-60(TB) leukemia.
Assay [7] relates to RPMI-8226 leukemia.
In assay [8] the test system is SF-295 CNS.
The subject of assay [9] is HS 578T breast.
The subject of assay [10] is HT29 colon.

For the molecule `COc1ccc(N2C(=O)C3c4[nH]c5ccccc5c4C4CCCCCCCCCC4C3C2=O)cc1` (stereo not given), the TGI in assay [1], in assay [2], in assay [3], in assay [4], in assay [5] and in assay [6] was more than 10 µM each time. Besides, the TGI in assay [7], in assay [8], in [9] and in [10] was more than 10 µM throughout.
On to `COc1cc(C(O)c2ccc3c(c2)OCO3)cc(OC)c1OC` (stereo not given), for which the TGI in [1], in assay [2], in assay [3], in [4], in [5] and in assay [6] was more than 100 µM in each case. The TGI in [7], in assay [8], in assay [9] and in assay [10] was more than 100 µM in each case.
As to `CCOC(=O)c1sc2ncnc(N)c2c1C`, the TGI in [1], in assay [2], in assay [3], in assay [4], in assay [5] and in assay [6] was more than 100 µM each time. For the same molecule, the TGI in assay [7], in [8], in assay [9] and in assay [10] was more than 100 µM each time.
As to `COc1ccc(OC)c2sc(N3C(=O)/C(=C/c4cccc([N+](=O)[O-])c4)N=C3c3ccccc3)nc12`, the TGI in assay [1] was more than 100 µM; in assay [2], more than 100 µM; in assay [3], more than 100 µM; in assay [4], more than 100 µM; in assay [5], more than 100 µM; in [6], 59.4 µM. In addition, the TGI in assay [7] is 61.2 µM; in assay [8], more than 100 µM; in assay [9], more than 100 µM; in assay [10], more than 100 µM.
In the case of `N#Cc1c(-c2ccccc2)c2c([nH]c1=O)-c1cc([N+](=O)[O-])ccc1CCC2`, the TGI amounted to 70.2 µM in assay [1]; 59.3 µM in assay [2]; 41 µM in [3]; 71.5 µM in [4]; 88.5 µM in [5]; 72.3 µM in assay [6]. Further, the TGI in assay [7] was more than 100 µM; in assay [8], 63.1 µM; in assay [9], more than 100 µM; in assay [10] it was more than 100 µM.
As to `O=[N+]([O-])c1cc(Cl)ccc1Sc1ccccc1`, the TGI in assay [1], in assay [2], in [3], in assay [4], in [5] and in assay [6] was more than 100 µM in each case. Also, the TGI in assay [7], in [8], in assay [9] and in assay [10] was more than 100 µM in each case.
In the case of `C(=C\c1ccccc1)/COc1ccccc1C(N1CCOCC1)n1nc2ccccc2n1` (stereo not given), the TGI is 20.4 µM in assay [1]; 24.2 µM in [2]; more than 100 µM in [3]; 22.6 µM in assay [4]; 49.6 µM in [5]; 1.45 µM in [6]. Also, the TGI in assay [7] came to 12.2 µM; in assay [8], 28.7 µM; in assay [9], 41.2 µM; in assay [10], 10.7 µM.
In the case of `c1ccc([P+](CCCCCCCC[P+](c2ccccc2)(c2ccccc2)c2ccccc2)(c2ccccc2)c2ccccc2)cc1`, the TGI was more than 100 µM in [1]; 24.7 µM in [2]; more than 86.4 µM in assay [3]; more than 100 µM in assay [4]; more than 100 µM in assay [5]; more than 31.8 µM in assay [6]. For the same molecule, the TGI is 23.8 µM in assay [7], more than 72.9 µM in [8], more than 100 µM in [9] and more than 50 µM in [10].
As to `C[C@H]1[C@H](C)CC[C@]2(C(=O)OC3OC(CO)C(O)C(O)C3O)CC[C@]3(C)C(=CC[C@@H]4[C@@]5(C)C[C@H]6OC(=O)c7cc(O)c(O)c(O)c7-c7c(cc(O)c(O)c7O)C(=O)O[C@@H]6C(CO)(CO)[C@@H]5CC[C@]43C)[C@H]12` (stereo not given in full), the TGI in assay [1], in [2], in [3], in [4], in assay [5] and in assay [6] was more than 100 µM in each case. The TGI in [7] is more than 100 µM; in assay [8], more than 100 µM; in assay [9] it was more than 100 µM; in [10], more than 56 µM.
As to `Clc1nncc2sc(-c3ccccc3)nc12`, the TGI in assay [1] was 53.6 µM; in assay [2], 47.4 µM; in assay [3], more than 100 µM; in assay [4], 69.1 µM; in [5], 12.5 µM; in assay [6], 51.2 µM. For the same molecule, the TGI in assay [7] was more than 100 µM; in assay [8] it was more than 77.4 µM; in assay [9], 64.7 µM; in [10] it was 68.5 µM.
